Measured values as given in patent publication EP4744665A1, “COMBINATION OF POLQ INHIBITOR COMPOUND AND ANTI-CANCER THERAPEUTIC AGENT OR RADIOTHERAPY” (Simcere Zaiming Pharmaceutical Co., Ltd., priority 2023, dated 2025).
pIC50: −log10 of the molar value.

Experiments:
[1] = system: DLD-1 BRCA2 (-/-) cell line; assay: Inhibition of tumor cell proliferation, 7 days, CTG; assay type: cell-based; conditions: Homo sapiens, DLD-1, 168 h, 7 days incubation
Procedure: (§1) Brief introduction to experimental principle: After the compound was co-incubated with tumor cells for 7 days, the ATP in viable cells was quantified using the CTG kit from Promega to reflect the effect of the compound on tumor cell proliferation.
(§2) Experimental methods: DLD-1 parent cells or DLD-1 BRCA2 (-/-) cells were diluted with an RPMI 1640 medium containing 10% FBS and then added to a 96-well plate (90 µL/well), with the number of cells being 600/well or 1200/well, respectively, and incubated overnight in an incubator at 37 °C with 5% CO2. The test compound was diluted to different concentrations with dimethyl sulfoxide (DMSO) and then added to a 96-well plate, such that, in the reaction system, the compound was serially diluted 4-fold from the final concentration of 25 µM. The concentration range of the compound was from 25 µM to 0.0004 µM, and the final concentration of DMSO was 0.25% v/v. After incubation for 7 days, 50 µL/well of CTG was added, and the mixture was incubated at room temperature for 10 min. The luminescence (Lum) signal value was read using an Envision microplate reader, and the inhibition rate and half inhibitory concentration (IC50) were calculated.
(§3) Inhibition rates were calculated and fitted using XLfit software to give the IC50 of the compound.
(§4) A Blank well and a DMSO well were set in the experiment. The blank well contained 100 µL of an RPMI Medium 1640 medium containing 10% FBS, and the inhibition rate of the compound on tumor cell growth was considered to be 100% under this condition. For the DMSO well, 0.25% v/v DMSO was added to the cell-containing well, and the inhibition rate of the compound on tumor cell growth was considered to be 0 under this condition. Inhibition rate = 100 × (Lummax−Lumcompound)/(Lummax−Lummin)% [formula] wherein Lummax refers to the luminescence signal value of the well containing cells and 0.25% v/v DMSO, and Lumcompound refers to the luminescence signal value of the well containing the compound and cells. Lummin refers to the luminescence signal value of the well containing the medium and 0.25% v/v DMSO.

DLD-1 parent cells = assay: as above; assay type: cell-based; conditions: Homo sapiens, DLD-1, 168 h, 7 days incubation
Procedure: as §1, §2, §3, §4

[2] = molecular target: T1, N-terminal active peptide segment of POLQ with ATPase activity (M1-N899) (Homo sapiens, UniProt O75417); assay: POLQ enzyme activity inhibition experiment (ATPase, NADH oxidation-coupled, OD 340 nm); assay type: biochemical
T1 construct: N-terminal active peptide segment of POLQ with ATPase activity (M1-N899)
T1 sequence (O75417 1-899): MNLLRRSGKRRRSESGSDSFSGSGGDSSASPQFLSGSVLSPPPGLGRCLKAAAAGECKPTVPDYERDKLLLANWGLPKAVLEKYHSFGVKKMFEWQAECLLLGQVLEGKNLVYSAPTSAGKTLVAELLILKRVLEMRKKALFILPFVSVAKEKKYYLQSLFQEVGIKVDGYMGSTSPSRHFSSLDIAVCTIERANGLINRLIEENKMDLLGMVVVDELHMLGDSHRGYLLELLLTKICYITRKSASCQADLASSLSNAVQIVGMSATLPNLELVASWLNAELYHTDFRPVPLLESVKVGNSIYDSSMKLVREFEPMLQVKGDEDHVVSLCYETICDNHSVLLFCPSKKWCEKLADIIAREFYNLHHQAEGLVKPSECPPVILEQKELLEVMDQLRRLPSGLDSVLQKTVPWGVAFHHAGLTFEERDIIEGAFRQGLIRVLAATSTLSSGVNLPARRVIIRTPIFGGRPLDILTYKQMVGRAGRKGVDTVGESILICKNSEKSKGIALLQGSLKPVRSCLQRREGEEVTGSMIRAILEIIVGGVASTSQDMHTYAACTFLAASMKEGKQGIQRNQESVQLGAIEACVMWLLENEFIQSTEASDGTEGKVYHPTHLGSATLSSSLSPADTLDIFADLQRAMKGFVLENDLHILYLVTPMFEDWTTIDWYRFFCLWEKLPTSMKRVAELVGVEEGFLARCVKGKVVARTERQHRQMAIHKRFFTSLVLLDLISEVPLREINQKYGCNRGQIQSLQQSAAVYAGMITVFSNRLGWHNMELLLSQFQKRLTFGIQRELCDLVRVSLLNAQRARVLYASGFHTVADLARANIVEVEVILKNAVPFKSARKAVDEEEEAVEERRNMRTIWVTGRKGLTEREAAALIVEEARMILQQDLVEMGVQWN
Procedure: Brief introduction to experimental principle: After the N-terminal active peptide segment of POLQ with ATPase activity (M1-N899) is co-incubated with the compound, this peptide segment reacts with substrate dT50 under the action of ATP to generate ADP. The generated ADP then participates in the subsequent NADH oxidation-coupled enzymatic reaction, catalyzing the conversion of NADH to NAD^+. The reduction in the OD value of NADH at 340 nm was measured using the Envision microplate reader from Perkin Elmer to reflect enzyme activity. Experimental instruments: Labcyte Echo 650 pipetting system; Perkin Elmer Envision microplate reader; Eppendorf 5810R centrifuge; Boxun BSD-YX3400 thermostatic shaker.
Experimental methods: The POLQ enzyme was diluted to 100 nM with a reaction buffer (20 mM Tris HCl (pH 7.80), 80 mM KCl, 10 mM MgCl2, 1 mM DTT, 0.01% w/v bovine serum albumin, 0.01% v/v Tween-20, 5% v/v glycerol). The test compound was diluted to different concentrations with dimethyl sulfoxide (DMSO) using an Echo 650 pipetting system and transferred to a 384-well plate, 20 µL/well of 100 nM POLQ was added, and the mixture was incubated at room temperature for 15 min. A reaction mixture solution was prepared with the concentrations of each component in the reaction mixture solution as follows: 100 µM ATP, 300 nM dT50, 300 µM NADH, 6 mM PEP, 10 U/mL lactate dehydrogenase, and 20 U/mL pyruvate kinase. 20 µL/well of the reaction mixture solution was added to start the enzyme reaction. In the reaction system, the compound was serially diluted 3-fold from the final concentration of 10 µM, covering a concentration range from 10 µM to 0.0005 µM, and the final concentration of DMSO in the system was 0.2% v/v. After the 384-well plate was reacted at room temperature for 20 min, the OD value at 340 nm was read using an Envision microplate reader.
as §3
A blank group and a DMSO group were set in the experiment. […]

MDA-MB-436 = assay: Combined use with combination drug, matrix study, Bliss Independence model (Cell Titer Glo, 7 days); assay type: cell-based; conditions: combination with Niraparib (PARP inhibitor)
Procedure: (§5) DLD-1 colorectal adenocarcinoma cells, DLD-1 BRCA2 (-/-) colorectal adenocarcinoma cells, SHP-77 human small cell lung cancer cells, NCI-H82 human small cell lung cancer cells, LNCAP prostate cancer cells, KURAMOCHI human ovarian cancer cells, A2780 human ovarian cancer cells, and NCI-H23 non-small cell lung cancer cells were cultured in a 1640 medium containing 10% fetal bovine serum. SKOV3 human ovarian cancer cells were cultured in a McCoy's 5A (modified) medium containing 10% fetal bovine serum. OVCAR3 ovarian cancer cells were cultured in a 1640 medium containing 20% fetal bovine serum and 10 µg/mL bovine insulin. MDA-MB-436 breast cancer cells (natural BRCA1 mutation) and A549 non-small cell lung cancer cells were cultured in a DMEM medium containing 10% fetal bovine serum. Capan-1 human pancreatic cancer cells (natural BRCA2 mutation) were cultured in an IMDM medium containing 20% fetal bovine serum. The cells were all cultured at 37 °C with 5% CO2. Cells at the logarithmic growth phase were available for the experiment.
(§6) 100 µL of the cell medium was added to rows A and H and columns 1 and 12 of a 96-well cell culture plate. Cultured cells were resuspended (adherent cells were digested with trypsin) and counted to give information on cell density and viability. The dilution ratio of the resuspended cells required for inoculating a fixed number of cells into 80 µL of the medium in each culture well was calculated based on the cell density information. After the resuspended cells were diluted with the corresponding medium, 80 µL of the diluted cells were transferred to columns 2-11 of rows B-G of a 96-well cell culture plate using an Eppendorf multi-channel pipette (60 wells in total for each plate). The cell culture plate was incubated overnight in an incubator at 37 °C with 5% CO2.
(§7) The test compound and the combination compound were dissolved in DMSO to give a 10 mM solution for later use. In the experiment, the compound was further diluted to the corresponding concentration according to the concentration designed in the experiment, and based on this concentration, serial gradient dilution was performed. Matrix study was performed at 8 or 7 dose concentrations of the test compound (the lowest dose concentration was 0, and other specific concentration values were shown in FIG. 1) and 7 or 8 dose concentrations of the combination compound (the lowest dose concentration was 0, and other specific concentration values were shown in FIG. 1). 10 µL of each of the diluted combination compound and test compound was added to the corresponding cell plate well, such that the final concentration of DMSO was 0.25%. The test compound and the cells were incubated in an incubator at 37 °C with 5% CO2 for another 7 days, Cell Titer Glo was added at 50 µL/well, and the luminescence value of each well was read using an Envision microplate reader.
(§8) The luminescence value of the well containing only the cell medium was taken as the background (RLUbackground, corresponding cell survival rate to be 0%), the cell well containing only 0.25% DMSO without the compound was taken as the maximum signal (RLUDMSO, corresponding cell survival rate to be 100%), and the luminescence values of the remaining wells containing cells and compounds at different concentrations were taken as RLUsample. The survival rate of each cell well was calculated as follows: Survival rate (%) = (RLUsample−RLUbackground)/(RLUDMSO−RLUbackground) × 100% [formula]
(§9) The interaction between drugs (synergistic, independent, or antagonistic) was statistically analyzed by the Bliss Independence model using Combenefit software (Bliss, C.I., Bacteriol. Rev., 1956, 20, 243-258). The model assumes that each drug acts independently. The theoretical expected action curve of the combination was calculated from the following equation: Bliss effect = effect A + effect B−effect A × effect B [formula] wherein effect A and effect B are the effects of drugs A and B alone at specific concentrations. […]

DLD-1 BRCA2 (-/-) = assay: as above; assay type: cell-based; conditions: combination with Olaparib (PARP inhibitor)
Procedure: as §5, §6, §7, §8, §9

| SMILES | pIC50 [1] | pIC50 (DLD-1 parent cells) | pIC50 [2] | Combined effect (MDA-MB-436) | Combined effect (DLD-1 BRCA2 (-/-)) |
| --- | --- | --- | --- | --- | --- |
| COc1ccc(Cl)cc1-c1cc(C)ncc1C(=O)Nc1nc2ncc(-c3ccc(C#N)cc3)nc2s1 [Compound I, 4-(5-Chloro-2-methoxyphenyl)-N-[6-(4-cyanophenyl)thiazolo[4,5-b]pyrazin-2-yl]-6-methylnicotinamide] | > 6.70 | ≤ 5.00 | > 7.00 | Synergistic | Synergistic |
| COc1cnc(C)cc1-c1cc(C)ncc1C(=O)Nc1nc2ncc(-c3ccc(C#N)cc3)nc2s1 [Compound II, N-(6-(4-Cyanophenyl)thiazolo[4,5-b]pyrazin-2-yl)-5'-methoxy-2',6-dimethyl-[4,4'-bipyridinyl]-3-carboxamide] | > 6.70 | ≤ 5.00 | > 7.00 | Synergistic | Synergistic |
| COc1ccc(Cl)cc1-c1cc(C)ncc1C(=O)Nc1nc2ncc(-c3ccc(C4CC4)cn3)nc2s1 [Compound III, 4-(5-Chloro-2-methoxyphenyl)-N-[6-(5-cyclopropylpyridin-2-yl)thiazolo[4,5-b]pyrazin-2-yl]-6-methylpyridine-3-carboxamide] | > 6.70 |  | > 7.00 |  | Synergistic |
